Consider one molecule from patent US12065436B2, “Cardiac sarcomere inhibitors” (Cytokinetics, Inc., priority 2018, dated 2024).

Read-outs that look alike come from different tables or passages of the source.

Test [1] relates to adult cardiac ventricular rat myocytes. Briefly: Adult ventricular myocyte contractility (fractional shortening). The conditions noted are these: 5 min, 5 μM compound, 5 min perfusion, read-out: % FS (% reduction from baseline) ± SEM. Type of test: cell-based. How it is done:
Adult male Sprague-Dawley rats were anesthetized and the hearts were quickly excised, rinsed and the ascending aorta was cannulated. Continuous retrograde perfusion was initiated on the hearts at a perfusion pressure of 60 cm H2O. Hearts were first perfused with a nominally Ca^2+-free modified Krebs solution of the following composition: 113 mM NaCl, 4.7 mM KCl, 0.6 mM KH2PO4, 0.6 mM Na2HPO4, 1.2 mM MgSO4, 12 mM NaHCO3, 10 mM KHCO3, 30 mM taurine, 5.5 mM glucose and 10 mM Hepes (all Sigma). This medium is not recirculated and is continually aerated with a 95% O2/5% CO2 mixture. After approximately 3 minutes the heart was perfused with a modified Krebs buffer supplemented with collagenase (Worthington) and 12.5 μM final calcium concentration. The heart was removed from the cannulae after the heart appeared blanched and soft in appearance. The atria and vessels were removed and the ventricles were gently dissected into smaller pieces with forceps. The tissue was homogenized by repeated pipette trituration and the collagenase reaction was stopped by 10% bovine calf serum (BCS), sedimentation and resuspension in perfusion buffer containing 5% BCS and 12.5 uM CaCl2). Myocytes were made calcium tolerant by stepwise addition of a CaCl2) solution to a final concentration of 1.2 mM. Cells were then washed and resuspended in Tyrode's buffer (137 mM NaCl, 3.7 mM KCl, 0.5 mM MgCl, 11 mM glucose, 4 mM Hepes, and 1.2 mM CaCl2), pH 7.4). Cells were kept for 60 min at 37° C. prior to initiating experiments and used within 5 hrs of isolation. […] Additionally, only cells whose basal contractility was between 3 and 8% were used in subsequent experiments with compounds.
Aliquots of myocytes in Tyrode's buffer were placed in perfusion chambers (series 20 RC-27NE; Warner Instruments) complete with heating platforms. Myocytes were allowed to attach, the chambers were heated to 37° C., and the cells were perfused with 37° C. Tyrode's buffer. Myocytes were field stimulated at 1 Hz in with platinum electrodes (20% above threshold). Only cells that had clear striations and were quiescent prior to pacing were used for contractility experiments. To determine basal contractility, myocytes were imaged through a 40× objective. […] Once cell contraction was stable over time, test compounds (0.01-15 μM) were perfused into the chambers on the myocytes for 5 minutes. Contractility of the myocytes and contraction and relaxation velocities were then recorded using edge detection.
Five or more individual myocytes were tested per compound from two or more different myocyte preparations. For each cell, twenty or more contractility transients at basal (defined as 1 min prior to compound infusion) and after compound addition (defined as 5 min after starting compound perfusion), were averaged and compared. These average transients were analyzed using the IonWizard software (IonOptix) to determine changes in diastolic length and fractional shortening. Fractional shortening was calculated as: ((resting length−length at peak contraction) divided by the resting length). The percent change in fractional shortening from baseline was calculated as: ((post-dose fractional shortening/basal fractional shortening)*100). The percent reduction in fractional shortening from baseline was calculated as: (100−percent change in fractional shortening from baseline). Maximum contraction and relaxation velocities (um/sec) was also determined. Results from individual cells are averaged and the SEM calculated.

Test [2] has as its system rat cardiac contractility (left ventricle fractional shortening). The test can be described thus: Echocardiography of acute effect on rat cardiac contractility, oral gavage. Type of test: in vivo, Sprague Dawley rats. The conditions noted are these: for inhibition in vivo at 6 mg/kg: oral gavage. The method, boiled down:
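Male Sprague Dawley rats under isoflurane (1-3%) anesthesia had three pre-dose baseline M-mode images of the left ventricle (parasternal long-axis view) taken at 1 minute intervals. Compound in 0.5% HPMC 2910: 0.1% Tween 80 suspension was then given as a single oral gavage dose (5 mL/kg). Fractional shortening was measured at chosen time points over 24 hours, with plasma concentrations sampled concurrently.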

In test [3] the test system is Dahl Salt Sensitive (DSS) rats, hypertension-induced model of heart failure with preserved ejection fraction. The test can be described thus: Fibrosis reduction in Dahl Salt Sensitive rat model of cardiac hypertrophy. Type of test: in vivo. To be noted: high-salt diet fed DSS rats, compound formulated in chow for 6 weeks, perivascular and interstitial cardiac tissue. On the procedure: Assessment of fibrosis reduction was performed using Dahl Salt Sensitive (DSS) rats, a previously reported hypertension-induced rat model of heart failure with preserved ejection fraction (Fillmore et al., Mol Med. 2018, 24(1):3; Dahl et al., J Exp Med. 1962, 115:1173-90).
DSS rats received vehicle or Compound 142 formulated in low or high salt chow for 6 weeks. Perivascular and interstitial cardiac tissue samples were imaged and assayed for % cardiac fibrosis.

In general, IC50 refers to the midpoint of a concentration-inhibition curve. What is called IC10 is the point of the concentration-response curve where the effect stands at 10%. In the case of `CC(C)c1nc(-c2ccc3c(c2)CC[C@H]3NC(=O)c2nnn(C)n2)no1` [Compound 142, (R)—N-(5-(5-isopropyl-1,2,4-oxadiazol-3-yl)-2,3-dihydro-1H-inden-1-yl)-2-methyl-2H-tetrazole-5-carboxamide], the inhibition at 5 µM in test [1] came to 67.8%. Besides, the inhibition in vivo at 6 mg/kg in test [2] (Rattus norvegicus, 1 h, 1-2 h post dose, read-out: FS (% reduction from baseline) at 1-2 h post dose (Mean ± S.D.)) was determined as 40 ± 9%; in test [2] (Rattus norvegicus, 4 h post dose, read-out: FS (% reduction from baseline) at 4 h post dose (Mean ± S.D.)) it was 18 ± 11%. Moreover, the IC50 in test [2] (Rattus norvegicus, oral dosing, plasma concentration at which fractional shortening is 50% of pre-dose baseline, estimated) is 2900 nM. In addition, the IC10 in test [2] (oral dosing, plasma concentration at which, estimated) is 700 nM. For the same molecule, in test [3], the “% cardiac fibrosis” value was “attenuated increases in fibrosis”.
